Source: patent publication US6982330B2, “Carbazole based compound, coloring material, colored high molecular organic material and electroluminescent material” (Dai Nippon Printing Co., LTD, priority 2002, dated 2006)

Experiments:
[1] = Suppressibility of crystallization (film formation ability) of spin-coated layer on glass plate; format: physicochemical; settings: dried at ambient temperature 30 minutes
Protocol: A toluene solution containing 2% by weight of the carbazole based compound of the formula (4) synthesized in Example 1 was prepared. Also, the other toluene solution containing 2% by weight of the same carbazole based compound and 2% by weight of an acrylic binder resin was prepared.
For the comparative examples, the other toluene solution containing 2% by weight of the carbazole (available from Sigma Aldrich Co,.) and the still other toluene solution containing 2% by weight of the carbazole and 2% by weight of the acrylic binder resin were prepared.
2 ml of the each toluene solution was dropped on a non-alkaline glass plate with 5 cm-square shape, and carried out a spin coating at 1,000 rotation per minute for about 2 seconds. Thereafter, it was dried at ambient temperature for 30 minutes, and then a surface of the coating layer was observed and evaluation was carried out regarding suitablility of coating and film-formation process and suppressibility of crystallizing.

[2] = Solubility to solvent (toluene or xylene, 2% by weight, 50° C.); format: physicochemical; settings: added so as to make concentration 2% by weight, stirred at 50° C. for one hour
Protocol: The carbazole based compound of the formula (4) synthesized in Example 1 was added in the toluene or xylene so as to make concentration at 2% by weight, and then stirred in a thermal condition at 50° C. for one hour.

| Structure (SMILES) | crystallization of coating layer (visual observation) ([1]; toluene solution containing 2% by weight of compound alone) | crystallization of coating layer (visual observation) ([1]; toluene solution containing 2% by weight of compound and 2% by weight of acrylic binder resin) | solubility in toluene or xylene [2] |
| --- | --- | --- | --- |
| c1ccc2c(c1)[nH]c1ccccc12 [carbazole] | crystallized to an extent that findable by visual observation | crystallized to an extent that findable by visual observation |  |
| c1cc2cccc3c4cccc5cccc(c(c1)c23)c54 [perylene] |  |  | solubility was insufficient |
